Measured values published in ChEMBL document CHEMBL2074201, “Cepharanthin, a multidrug resistant modifier, is a substrate for P-glycoprotein” (J Pharmacol Exp Ther, 1995).

Key:
[1] = target: T1, ATP-dependent translocase ABCB1 (Homo sapiens, UniProt P08183); test: TP_TRANSPORTER: transepithelial transport (basal to apical) in MDR1-expressing LLC-PK1 cells; format: functional, cell-based; conditions: pig
[2] = target: T1, ATP-dependent translocase ABCB1; test: TP_TRANSPORTER: inhibition of Daunorubicin transepithelial transport (basal to apical) (Daunorubicin: 0.1 uM) in MDR1-expressing LLC-PK1 cells; format: functional, cell-based

T1 sequence (P08183 whole entry): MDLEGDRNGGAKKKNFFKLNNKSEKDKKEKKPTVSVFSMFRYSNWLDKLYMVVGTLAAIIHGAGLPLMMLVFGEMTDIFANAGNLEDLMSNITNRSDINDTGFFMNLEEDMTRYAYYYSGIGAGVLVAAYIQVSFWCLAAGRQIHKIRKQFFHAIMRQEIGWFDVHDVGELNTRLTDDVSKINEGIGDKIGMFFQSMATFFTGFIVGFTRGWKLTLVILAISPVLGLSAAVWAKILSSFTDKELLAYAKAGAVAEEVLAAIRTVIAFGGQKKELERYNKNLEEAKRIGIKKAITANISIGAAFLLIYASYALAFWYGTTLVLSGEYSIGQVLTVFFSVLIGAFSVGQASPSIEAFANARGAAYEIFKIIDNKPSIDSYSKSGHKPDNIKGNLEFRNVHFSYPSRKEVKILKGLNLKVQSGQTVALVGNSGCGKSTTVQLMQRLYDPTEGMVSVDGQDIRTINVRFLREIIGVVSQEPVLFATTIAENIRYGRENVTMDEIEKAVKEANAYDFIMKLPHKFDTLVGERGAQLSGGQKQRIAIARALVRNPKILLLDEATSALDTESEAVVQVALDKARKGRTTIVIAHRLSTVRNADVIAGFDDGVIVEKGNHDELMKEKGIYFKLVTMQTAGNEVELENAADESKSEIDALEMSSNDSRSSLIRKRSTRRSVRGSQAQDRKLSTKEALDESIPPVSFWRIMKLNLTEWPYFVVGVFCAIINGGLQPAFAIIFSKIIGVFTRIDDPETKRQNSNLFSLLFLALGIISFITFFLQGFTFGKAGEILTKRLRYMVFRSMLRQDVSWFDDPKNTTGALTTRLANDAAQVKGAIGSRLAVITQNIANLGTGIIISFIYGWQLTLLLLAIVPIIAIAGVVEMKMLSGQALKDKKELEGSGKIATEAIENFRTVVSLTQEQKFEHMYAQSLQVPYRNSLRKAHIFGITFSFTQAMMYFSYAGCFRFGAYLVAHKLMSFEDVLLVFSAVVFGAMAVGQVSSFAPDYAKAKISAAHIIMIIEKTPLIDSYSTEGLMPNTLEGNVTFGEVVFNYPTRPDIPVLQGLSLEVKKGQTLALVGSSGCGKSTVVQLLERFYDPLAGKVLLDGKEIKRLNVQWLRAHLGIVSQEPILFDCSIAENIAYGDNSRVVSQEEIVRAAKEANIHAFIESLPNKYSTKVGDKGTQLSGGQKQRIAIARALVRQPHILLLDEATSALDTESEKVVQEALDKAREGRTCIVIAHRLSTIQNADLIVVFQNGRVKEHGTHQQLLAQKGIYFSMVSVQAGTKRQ

Activity [1]: substrate [+]
IC50 [2]: 2060 nM
Compound: COc1ccc2cc1Oc1cccc(c1)C[C@H]1c3c(cc4c(c3Oc3cc5c(cc3OC)CCN(C)[C@@H]5C2)OCO4)CCN1C [CEPHARANTHIN]
